Experimental data taken from the Kinase Knowledgebase extract (Sharma et al. 2016).
Several values for one entry are separate records, joined by “and”; a condition that tells them apart may be missing. Equal values may be shown once.

Experiments:
CDK2;CDK1 (human) = CDK2;CDK1 (human) (UniProt P24941); test: Cell-Based Assay; details: hela-s3
CDK2 (human) [1] = target: CDK2 (human) (UniProt P24941); test: Enzyme Assay
CDK2 (human) [2] = target: CDK2 (human) (UniProt P24941); test: Enzyme Assay; remark: listed apart in the source

| SMILES | GI50 (CDK2;CDK1 (human)) | IC50 (CDK2 (human) [1]) | IC50 (CDK2 (human) [2]) |
| --- | --- | --- | --- |
| COC(=O)N[C@H]1CC[C@H](Nc2nc(NCc3ccc(-c4ccccc4)cc3)c3ncn(C(C)C)c3n2)CC1 | 700 nM and 400 nM and 300 nM |  |  |
| COc1cccc(-c2ccc(CNc3nc(N[C@H]4CC[C@H](NC(C)=O)CC4)nc4c3ncn4C(C)C)cc2)c1 | 300 nM and 400 nM |  |  |
| CC(C)n1cnc2c(NCc3ccc(-c4ccccc4)cc3)nc(N[C@H]3CC[C@H](NS(=O)(=O)C(F)(F)F)CC3)nc21 | 3000 nM and 2000 nM and 4000 nM |  |  |
| CC(C)n1cnc2c(NCc3ccc(-c4ccccc4)cc3)nc(N[C@H]3CC[C@H](NCC4CC4)CC3)nc21 | 300 nM |  |  |
| CCC(=O)N[C@H]1CC[C@H](Nc2nc(NCc3ccc(-c4ccccc4)cc3)c3ncn(C(C)C)c3n2)CC1 | 200 nM and 400 nM and 300 nM |  |  |
| CC(C)n1cnc2c(NCc3ccc(-c4ccccc4)cc3)nc(N[C@H]3CC[C@H](NC(=O)C4CC4)CC3)nc21 | 300 nM |  |  |
| CC(C)n1cnc2c(NCc3ccc(-c4ccccc4)cc3)nc(NCCN)nc21 | 200 nM and 400 nM |  |  |
| CCN(C(C)=O)[C@H]1CC[C@H](Nc2nc(NCc3ccc(-c4ccccc4)cc3)c3ncn(C(C)C)c3n2)CC1 | 600 nM and 800 nM |  |  |
| CC(C)n1cnc2c(NCc3ccc(-c4ccccc4)cc3)nc(N[C@H]3CC[C@H](NS(C)(=O)=O)CC3)nc21 | 200 nM and 100 nM |  |  |
| CC(C)n1cnc2c(NCc3ccc(-c4ccccc4)cc3)nc(NCCCN)nc21 | 300 nM and 600 nM |  |  |
| CC(C)n1cnc2c(NCc3ccc(-c4ccccc4)cc3)nc(NC[C@H](C)NC(=O)OC(C)(C)C)nc21 | 300 nM and 100 nM | 3000 nM and 1000 nM | 4000 nM and 11000 nM |
| CCCCN[C@H]1CC[C@H](Nc2nc(NCc3ccc(-c4ccccc4)cc3)c3ncn(C(C)C)c3n2)CC1 | 500 nM and 300 nM |  |  |
| CC(C)n1cnc2c(NCCc3ccc(-c4ccsc4)cc3)nc(N[C@H]3CC[C@H](NC(=O)OC(C)(C)C)CC3)nc21 | > 10000 nM and 7000 nM |  |  |
| CC(C)n1cnc2c(NCc3ccc(-c4ccccc4)cc3)nc(N[C@H]3CC[C@H](N(CC4CC4)CC4CC4)CC3)nc21 | 30 nM |  |  |
| CC(C)n1cnc2c(NCc3ccc(-c4ccccc4)cc3)nc(N3CCC(C(N)=O)CC3)nc21 | 5000 nM and 3000 nM |  |  |
| CCN[C@H]1CC[C@H](Nc2nc(NCc3ccc(-c4ccccc4)cc3)c3ncn(C(C)C)c3n2)CC1 | 2000 nM and 900 nM |  |  |
| CC(C)n1cnc2c(NCc3ccc(-c4ccccc4)cc3)nc(N[C@H]3CC[C@H](N4C(=O)CCC4=O)CC3)nc21 | 300 nM and 200 nM and 500 nM |  |  |
| CC(=O)N[C@H]1CC[C@H](Nc2nc(NCc3ccc(-c4cccc(C)c4)cc3)c3ncn(C(C)C)c3n2)CC1 | 400 nM and 200 nM |  |  |
| CCn1cnc2c(NCc3ccc(Cl)cc3)nc(N[C@H]3CCCC[C@H]3N)nc21 | 3000 nM | 100 nM | 1000 nM |
| CC(C)n1cnc2c(NCc3ccc(-c4ccccc4)cc3)nc(N3CCC(N)C3)nc21 (stereo unspecified) | 500 nM |  |  |
| CN1CC[C@@H](c2c(O)cc(O)c3c(=O)cc(C4CCCCC4Cl)oc23)[C@@H](O)C1 (stereo partly specified) |  |  | 200 nM and 60 nM |
| CC(=O)NCCNc1nc(NCc2ccc(-c3ccccc3)cc2)c2ncn(C(C)C)c2n1 | 3000 nM and 4000 nM |  |  |
